Assay results reported in US20060270871A1, “P[…] I OF […] PROCESSES FOR ITS PREPARATION” (priority 2005, published 2006).
Read-outs that look alike come from different tables or passages of the source.

Columns and labels:
[1] = hygroscopicity of anhydrous pregabalin; assay type: physicochemical; settings: moisture content less than about 0.3% w/w
[2] = accelerated stability testing; settings: anhydrous pregabalin, moisture content less than about 0.3% w/w
[3] = relative to (S)-(+)-pregabalin, type of activity not specified, cited from earlier work

Row | Compound | hygroscopicity [1] | stability during the accelerated stability testing [2] | times less active when compared with the (S)-(+)-enantiomer [3] | times less active when compared with the (S)-(+)-enantiomer ([3]; listed as (R)-(−)-enantiomer) [times]
1 | CC(C)CC(CN)CC(=O)O (stereo in doubt) [anhydrous pregabalin, (S)-(+)-3-aminomethyl-5-methyl-1-hexanoic acid] | non-hygroscopic | stable |  | 
2 | CC(C)C[C@@H](CN)CC(=O)O (single isomer, unassigned) [(R)-(−)-enantiomer of pregabalin] |  |  | about 40 times | 40
